As usually defined, the Ki is the equilibrium dissociation constant of an inhibitor or competing ligand from its target.

For data set [1], the target named is D3R. The note with it: Table 1; cited from earlier work.
On the set-up of data set [2]: method as in PMID 27715007. The note with it: in vivo; cited from earlier work.
The subject of data set [3] is D2R. Also noted: method as in PMID 27715007. The note with it: cited from earlier work.
In data set [4] the target is human D3 receptor triple mutant Y36L, S182I, V350I (Homo sapiens, UniProt P35462, S182I/V350I/Y36L). The experiment in a line: Radioligand binding assay, D3R triple mutant. The note with it: two replicas. The method, then: (§1) The D3R mutations were located in the OBS or the vicinity of the OBS and were performed on nine different residues (Fig. 1).
(§2) Point mutants were made by site-directed mutagenesis using 0.5 μl Takara’s PrimeStar Hot start polymerase with 20ng D3R wild type template plasmid DNA, 5 × PrimeStar buffer, 4 μl dNTP mix (2.5 mM each dNTP), plus 0.5 μg forward and reverse primers. 18 cycles were performed at 98 °C for 30 seconds, 55 °C for 30 seconds and 72 °C for 6.5 minutes. The template was degraded with DpnI for 1 hr and transformed into DH5α competent cells.
(§3) Mutants were expressed in SF9 insect cells for 48 hrs with an approximate MOI of 5. A list of mutagenesis primers used can be found in Table S3.
(§4) Binding assays were performed on membranes prepared from transiently transfected human D3 receptor mutants in SF9 insect cells. Frozen cell paste was homogenized by Polytron in 50 mM Tris HCl buffer (pH 7.4 at 4 degrees C) containing 2.0 mM MgCl2. […] 7-OH-DPAT levels were determined by liquid scintillation counting of the filterplates in Ecolume scintillation fluid. […] Ki values were calculated according to the Cheng- Prusoff equation, Ki = IC50/(1 + (L/Kd)), where L is the concentration of the radioligand used in the experiment and the Kd value is the dissociation constant for the radioligand at the mutant receptor (determined previously by saturation analysis).

Data set [5] deals with T1, human D3 receptor mutant S182I (Homo sapiens, UniProt P35462, S182I).
T1 construct: Flag tag (N); His tag (C); expressed in transfected cells; host or cells: SF9 insect cells (membranes)
Briefly: Radioligand binding assay, D3R mutant S182I. The note with it: two replicas. As for the experimental part:
as §1, §2, §3, §4

Data set [6] has as its target T2, human D3 receptor mutant Y36F (Homo sapiens, UniProt P35462, Y36F).
T2 construct: Flag tag (N); His tag (C); expressed in transfected cells; host or cells: SF9 insect cells (membranes)
The experiment in a line: Radioligand binding assay, D3R mutant Y36F. The note with it: two replicas. The method, then:
as §1, §2, §3, §4

Data set [7] deals with T3, human D3 receptor mutant I183F (Homo sapiens, UniProt P35462, I183F).
T3 construct: Flag tag (N); His tag (C); expressed in transfected cells; host or cells: SF9 insect cells (membranes)
The experiment in a line: Radioligand binding assay, D3R mutant I183F. The method, then: as §1, §2, §3, §4

Data set [8] addresses T4, human D3 receptor mutant Y36L (Homo sapiens, UniProt P35462, Y36L).
T4 construct: Flag tag (N); His tag (C); expressed in transfected cells; host or cells: SF9 insect cells (membranes)
The experiment in a line: Radioligand binding assay, D3R mutant Y36L. The note with it: two replicas. As for the experimental part:
as §1, §2, §3, §4

The target of data set [9] is human D3 receptor mutant Y373F (Homo sapiens, UniProt P35462, Y373F). Briefly: Radioligand binding assay, D3R mutant Y373F. The note with it: two replicas. As for the experimental part:
as §1, §2, §3, §4

Data set [10] has as its target T5, human D3 receptor mutant C114L (Homo sapiens, UniProt P35462, C114L).
T5 construct: Flag tag (N); His tag (C); expressed in transfected cells; host or cells: SF9 insect cells (membranes)
Briefly: Radioligand binding assay, D3R mutant C114L. The note with it: two replicas. The method, then:
as §1, §2, §3, §4

Data set [11] concerns the target T6, human D3 receptor mutant V189A (Homo sapiens, UniProt P35462, V189A).
T6 construct: Flag tag (N); His tag (C); expressed in transfected cells; host or cells: SF9 insect cells (membranes)
Briefly: Radioligand binding assay, D3R mutant V189A. As for the experimental part: as §1, §2, §3, §4

In data set [12] the target is T7, human D3 receptor mutant Y365L (Homo sapiens, UniProt P35462).
T7 construct: Flag tag (N); His tag (C); expressed in transfected cells; host or cells: SF9 insect cells (membranes)
Briefly: Radioligand binding assay, D3R mutant Y365L. The note with it: two replicas. As for the experimental part:
as §1, §2, §3, §4

The target in data set [13] is T8, human D3 receptor mutant E90Q (Homo sapiens, UniProt P35462, E90Q).
T8 construct: Flag tag (N); His tag (C); expressed in transfected cells; host or cells: SF9 insect cells (membranes)
Briefly: Radioligand binding assay, D3R mutant E90Q. The note with it: two replicas. As for the experimental part: as §1, §2, §3, §4

Data set [14] concerns the target T9, human D3 receptor mutant V189I (Homo sapiens, UniProt P35462, V189I).
T9 construct: Flag tag (N); His tag (C); expressed in transfected cells; host or cells: SF9 insect cells (membranes)
The experiment in a line: Radioligand binding assay, D3R mutant V189I. The note with it: two replicas. The method, then:
as §1, §2, §3, §4

The target in data set [15] is T10, wt-D3R (Homo sapiens, UniProt P35462).
T10 construct: Flag tag (N); His tag (C); expressed in transfected cells; host or cells: SF9 insect cells (membranes), pFastbac/baculovirus
Briefly: Radioligand ([3H]7-OH-DPAT) binding assay, wild type D3R membranes from SF9 cells.

For data set [16], the target named is T11, human D3 receptor mutant E90L (Homo sapiens, UniProt P35462, E90L).
T11 construct: Flag tag (N); His tag (C); expressed in transfected cells; host or cells: SF9 insect cells (membranes)
The experiment in a line: Radioligand binding assay, D3R mutant E90L. The note with it: two replicas. The method, then: as §1, §2, §3
Binding assays were performed on membranes prepared from transiently transfected human D3 receptor mutants in SF9 insect cells. Frozen cell paste was homogenized by Polytron in 50 mM Tris HCl buffer (pH 7.4 at 4 degrees C) containing 2.0 mM MgCl2. The cell membranes were spun in a high-speed centrifuge at 40,000 × g for ten minutes. The final pellet was re-suspended in assay buffer (50 mM Tris buffer, 120 mM NaCl, 5 mM MgCl2, 5 mM KCl, 2 mM CaCl2, pH 7.4 at 37 °C). […] 7-OH-DPAT levels were determined by liquid scintillation counting of the filterplates in Ecolume scintillation fluid.

Where “and” joins values, the source holds several entries; their conditions need not be identical. Identical values can stand only once.

As to `CCc1cc(Cl)c(OC)c(C(=O)NC[C@@H]2CCCN2CC)c1O` [Compound 2, Eticlopride], the Ki in data set [1] was 0.24 nM.

Turning to `CCN1CCO[C@@H](c2ccc(NS(=O)(=O)c3ccc(C(C)C)cc3)c(C)c2)C1` [Compound 1, PF-4363467], the “locomotor or catalepsy side effects” value in data set [2] was “lack of locomotor or catalepsy side effects”. Moreover, the D2R receptor occupancy in data set [3] is listed as 86%. Moreover, the Ki in [4] is 29.5 nM and 22 nM; in data set [5] it was 3.6 nM and 2.1 nM; in data set [6] it was 3.2 nM and 2.5 nM; in data set [7] (D3R mutant I183F, two replicas) it was 55 nM and 43 nM; in data set [8], 22 nM and 13 nM; in data set [9] it was 14.8 nM and 15.8 nM. Also, the Ki was 1.6 nM and 1.3 nM in data set [10]; 24 nM and 30 nM in data set [11] (D3R mutant V189A, two replicas); 13.1 nM and 12.5 nM in [12]; 6 nM and 5.4 nM in [13]; 8.2 nM and 6.5 nM in data set [14]; 3.4 ± 0.4 nM in [15] (wild type D3R, Table 1). Besides, in [16], the Ki is 4.9 nM and 3.7 nM. Moreover, the results for the “decrease in affinity (fold-shift Ki mutant/Ki wt)” value in data set [7] (I183F mutant vs wt D3R) and in [11] (V189A mutant vs wt D3R) were 14 fold and 8 fold, respectively. The “ΔGexp (experimental binding free energy)” value in data set [15] (wt D3R) is -11.6 kcal/mol.

The values above are taken from paper PMC5772633 (Scientific Reports, 2018).
